Test results taken from patent US11905518B2, “Small auxin upregulated (SAUR) gene for the improvement of root system architecture, waterlogging tolerance, drought resistance and yield in plants and methods of uses” (Curators of the University of Missouri, priority 2018, dated 2024).

Tested on: NILs (NIL147_aa and NIL147_AA)
Experiment: Waterlogging treatment of NILs with auxin biosynthesis inhibitor PCIB
Assay type: in vivo, soybean
Procedure: FIGS. 7A-7C depict involvement of auxin in the regulation of waterlogging tolerance. Complementation of qWL_Gm03 by auxin biosynthesis inhibitor in waterlogging tolerance (FIG. 7A) and induction of adventitious roots (FIG. 7B). The two lines were waterlogging treated for 10 days using water (control) and 10 μM p-Chlorophen-oxyisobutyric acid (PCIB: an auxin biosynthesis inhibitor). Then plants were allowed to recover for 7 days (left) before evaluation for flooding injury scores and adventitious root rating. Data shown are means±standard deviations of 9 biological replicates (soil pots) and each replicate contains 2 to 3 plants. Student's-t-test was used to compare means between NIL147_aa and NIL147_AA. FIG. 7C Expression of GmARF20 in the roots during waterlogging treatment. GmARF20 in soybean is the closest homologue of AtARF19 in Arabidopsis (Ha et al. 2013). Data shown are means±standard deviations of two biological replicates and each replicate contains 10 plants.
Waterlogging test were performed in both field and greenhouse. Field tests for RIL populations and fine-mapping were conducted at the Lee Farm at the DRC in Portageville, MO The evaluation of NILs were performed at four locations, including DRC (MO), Rhower Research Station (AR), Delta Research and Extension Center (MS) and Red River Research Station (LA). The soil types of the four locations were Sharkey clay (very fine, smectitic, thermic Chromic Epiaquerts). Each lines were planted in hill plots at a density of 8 seeds per plot with 1 meter spacing with 2 to 3 replications. Waterlogging treatments were imposed by flood irrigation. Water was pumped on the field when 80% of the lines within each maturity block were at the R1 growth stage (Fehr and Caviness 1977). […]
Auxin generally promotes root initiation and elongation (reviewed by Overvoorde et al. 2010). Therefore, the involvement of auxin in waterlogging tolerance was further evaluated by the treatment of an auxin biosynthesis inhibitor: p-Chlorophen-oxyisobutyric acid (PCIB) on the NILs (NIL147_aa and NIL147_AA) during waterlogging. […]

[1] = 10 μM PCIB vs water control, waterlogging treated for 10 days, 7 days recovery, NIL147_aa and NIL147_AA

## CC(C)(Oc1ccc(Cl)cc1)C(=O)O [PCIB, p-Chlorophen-oxyisobutyric acid]
10 μM PCIB during waterlogging, NIL147_aa vs NIL147_AA
  genotypic differences of qWL_Gm03 in waterlogging tolerance performance and formation of adventitious/aerial roots: complement the genotypic differences
[1]
  formation of adventitious/aerial roots (adventitious root rating): significantly impair
  waterlogging tolerance (flooding injury scores): significantly impair
